The values below come from patent US11898155B2, “Method for introducing molecule and composition containing inhibitor” (Pearl Kogyo Co., Ltd., priority 2017, dated 2024).

Assay [1] relates to L-929 cells. Put plainly: Gene transfer efficiency (GFP-expressing cells/viable cell number, Cytell) after plasma introduction with inhibitor treatment. The assay is classed as cell-based, mouse. Conditions: for gene introduction rate: concentration of inhibitor changed, normalized to control without inhibitor = 1 (FIGS. 8 to 11). As for the experimental part:
(§1) Mouse fibroblast L-929 cells were seeded on a 96-well plate and were cultured for 24 h in CO2 incubator. A culture medium was removed by aspiration, and 100 μL of nocodazole (inhibitor) free-culture medium, 1 μM nocodazole-containing culture medium, or 100 μM nocodazole-containing culture medium was added to each well. The cells were cultured for 30 min in CO2 incubator. Next, the culture medium was removed by aspiration, and 6.0 μg/6.0 μL of pAcGFP1-N1 plasmid (selected molecule) solution was added dropwise to each well. The 96-well plate was set in plasma irradiation equipment and irradiated with plasma. Then, 100 μL of culture medium was immediately added, and the plate was returned to CO2 incubator and the cells were cultured for 24 h. The cells after the culturing were observed under a microscope.
A selected molecule was introduced in the same manner as in Example 1, except the point that in the inhibitor treatment step using 1 μM nocodazole, the treatment time was changed from 1 min to 120 min. […] The dashed line denotes the level in the case without adding nocodazole (control, left panel). The gene transfer efficiency (%) was calculated, using a Cytell (Cytell Cell Imaging System, manufactured by GE Healthcare, Inc.), as (the number of GFP-expressing cells/viable cell number).
A selected molecule was introduced in the same manner as in Example 1, except the point that the cells were treated with 5 μM or 15 μM chloroquine diphosphate and the plasma irradiation time was changed.
A selected molecule was introduced in the same manner as in Example 1, except the point that the concentration of nocodazole was changed, to determine cell viability and gene transfer efficiency. The plasma irradiation conditions were at a frequency of 20 kHz, a voltage of 15 kVpp, and an inter-electrode distance of 1 mm and for an irradiation time of 1 msec.
Cell viability and gene transfer efficiency were determined in the same manner as in Example 4, except the point that chloroquine was used as the inhibitor.
Cell viability and gene transfer efficiency were determined in the same manner as in Example 4, except the point that LY-294002 was used as the inhibitor.
Cell viability and gene transfer efficiency were determined in the same manner as in Example 4, except the point that wortmannin was used as the inhibitor.

The test system of the next assay is MDCK cells. Put plainly: GFP plasmid introduction by plasma with nocodazole treatment after plasma irradiation, microscope observation. The assay is classed as cell-based, canine. To be noted: 1.0 μM or 0.1 μM nocodazole for 30 min after plasma irradiation; vs without nocodazole treatment (FIG. 13). As for the experimental part:
(§2) By using cells (canine renal epithelial cell MDCK cells or human osteosarcoma cell MG63 cells) different from those in Example 1, gene transfer efficiency was examined when nocodazole treatment was performed after plasma irradiation. Specifically, the following protocol was used to conduct an experiment.
(§3) Canine renal epithelial cell MDCK cells or human osteosarcoma cell MG63 cells were each seeded on a 96-well plate and cultured for 24 h in CO2 incubator. The culture medium was removed by aspiration, and 6.0 μg/6.0 μL of pAcGFP1-N1 plasmid (selected molecule) solution was added dropwise to each well. The 96-well plate was set in plasma irradiation equipment and was irradiated with plasma. Then, 100 μL of nocodazole (inhibitor)-free culture medium, 1 μM nocodazole-containing culture medium, or 0.1 μM nocodazole-containing culture medium was added to each well. The cells were cultured for 30 min in CO2 incubator. After that, the culture medium was removed by aspiration and 100 μL of culture medium was added immediately. The plate was returned to CO2 incubator, and the cells were cultured for 24 h. The cells after the culturing were observed under a microscope. The plasma irradiation conditions were the same as in Example 1.

Assay [2] deals with MG63 cells. Described as above. The class given is cell-based, human. Conditions: 1.0 μM or 0.1 μM nocodazole for 30 min after plasma irradiation; vs without nocodazole treatment (FIG. 14). The method, then:
as §2, §3

Assay [3] deals with L-929 cells. As to the kind of experiment: GFP-expressing plasmid introduction by plasma irradiation after inhibitor treatment, microscope observation. The class given is cell-based, mouse. Conditions: 1 μM or 100 μM nocodazole, 30 min before plasma irradiation; compared to the case without nocodazole treatment (FIGS. 2 to 4). As for the experimental part: as §1
In Example 1, the plasma irradiation conditions were at a frequency of 20 kHz, a voltage of 15 kVpp, and an inter-electrode distance of 1 mm and for an irradiation time of 1 msec or 5 msec.

Assay [4] relates to MG63 cells. As to the kind of experiment: GFP plasmid introduction by plasma with nocodazole treatment before irradiation, microscope observation. To be noted: 1.0 μM or 0.1 μM nocodazole before plasma irradiation; vs without nocodazole treatment (FIG. 12). The class given is cell-based, human. The method, then: as §1
An experiment was conducted in the same manner as in Experiment 1, except that cells (human osteosarcoma cells, MG63 cells) different from those in Example 1 were used. The concentration of nocodazole was 1 μM or 0.1 μM.

Assay [5] concerns L-929 cells. As to the kind of experiment: PCR quantification of remaining plasmid gene at 24 h after introduction. Conditions: 1 μM nocodazole, from Cq values (FIG. 15). The class given is cell-based, mouse. The method, then:
A selected molecule was introduced into mouse fibroblast L-929 cells in the same procedure as in Example 1. The resulting cells were cultured for 24 h. […] The cultured cells were collected from eight wells, and a High Pure PCR Template Preparation Kit (manufactured by Roche, Inc.) was used to recover and purify DNA. Next, 50 ng of the purified DNA was added to a PCR reaction kit SYBR Green I (Fast Start Essential DNA Green Master, manufactured by Roche, Inc.). Each resulting mixture was subjected to 40 cycles of amplification using a PCR machine (LightCycler 96 system, manufactured by Roche, Inc.). […] Each Cq value refers to a value determined by calculating a cycle number after amplification of gene sequence of interest has started and before a quantitative increase (linear increase) is initiated. The cycle number indicated by each arrow in FIG. 15(B) refers to the Cq value. When many copies of the gene sequence of interest are contained, there is a rapid increase in amplification and the Cq value is small. In addition, the inverse number of Cq value is proportional to the initial amount of the gene sequence of interest.

In the case of `O=c1cc(N2CCOCC2)oc2c(-c3ccccc3)cccc12` [LY-294002, 2-(4-morpholinyl)-8-phenyl-4H-1-benzopyran-4-one], the gene introduction rate entry with L-929 cells [1] (plasma irradiation 1 msec) is listed as “significantly increased”.

On to `COC(=O)Nc1nc2ccc(C(=O)c3cccs3)cc2[nH]1` [nocodazole], for which the “number of GFP-expressing cells” value is on record as “increase” in the assay with MDCK cells, “increase” with MG63 cells [2], “increased” with L-929 cells [3] and “increased” with MG63 cells [4]. In addition, in the assay on L-929 cells [5], the “amount of exogenous gene DNA remaining in cells relative to cells without nocodazole treatment” value is “about 1.44 times”. The gene transfer efficiency result with L-929 cells [1] (1 μM nocodazole, treatment time 1 min to 120 min, plasma irradiation time 1 msec, vs without nocodazole (FIG. 6(B))) was “marked increase”; with L-929 cells [1] (1 μM nocodazole, treatment time 1 min to 120 min, plasma irradiation time 5 msec, vs cells without nocodazole (FIG. 5(B))) it was “markedly increased”. Further, the gene introduction rate result with L-929 cells [1] (plasma irradiation 1 msec) is recorded as “significantly increased”.

Take `CCN(CC)CCCC(C)Nc1ccnc2cc(Cl)ccc12` (stereo not drawn) [chloroquine]: the gene transfer efficiency entry in the assay with L-929 cells [1] (chloroquine 5 μM or 15 μM, plasma irradiation time 1 msec to 10 msec, vs cells without chloroquine treatment (std) (FIG. 7(B))) was “increased”. Moreover, in the assay with L-929 cells [1] (plasma irradiation 1 msec), the gene introduction rate entry is listed as “significantly increased”.

As for `COC[C@H]1OC(=O)c2coc3c2[C@@]1(C)C1=C(C3=O)[C@@H]2CCC(=O)[C@@]2(C)C[C@H]1OC(C)=O` [wortmannin], the “inhibitor concentration at which the gene transfer efficiency was further markedly increased” value in the assay on L-929 cells [1] (plasma irradiation 1 msec, 30 min inhibitor treatment (FIGS. 8 to 11)) is at most 0.01 µM.
